Among the data in US20060069013A1, “Pharmaceutical preparations comprising acid-stabilised insulin” (Novo Nordisk A/S, priority 2003, published 2006) are melting point, absorption rates and absorption half-life values, retold here.

Settings in the first data set: not given
The melting point is the temperature, or range, at which the solid turns liquid. `CC(/C=C1\SC(=O)NC1=O)=C\c1ccccc1` [Example 240, 5-(2-Methyl-3-phenylallylidene)thiazolidine-2,4-dione] yielded a melting point of 203 to 210 °C.

In turn, `c1cc(COc2ccc3ccccc3c2)cc(-c2nnn[nH]2)c1` [Example 572, 5-(3-(Naphthalen-2-yloxymethyl)-phenyl)-1H-tetrazole] displayed a melting point of 200 to 202 °C.

Compound `O=C1NC(=O)/C(=C/c2c(Cl)cccc2Cl)S1` [Example 229, 5-(2,6-Dichlorobenzylidene)thiazolidine-2,4-dione] yielded a melting point of 152 to 154 °C.

Turning to `O=C1NC(=O)/C(=C/c2cc3ccccc3[nH]c2=O)S1` [Example 242, 5-(2-Oxo-1,2-dihydroquinolin-3-ylmethylene)thiazolidine-2,4-dione], the melting point was 338 to 347 °C.

For `COc1cc(C=C2SC(=O)NC2=O)cc(I)c1O` [Example 167, 5-(4-Hydroxy-3-iodo-5-methoxybenzylidene)thiazolidine-2,4-dione], the melting point was 256 °C.

Consider `O=C1NC(=O)/C(=C/c2cc3ccccc3o2)S1` [Example 238, 5-Benzofuran-2-ylmethylenethiazolidine-2,4-dione], for which the melting point is 265 to 266 °C.

Take `O=C1NC(=O)/C(=C/C(Cl)=C/c2ccccc2)S1` [Example 241, 5-(2-Chloro-3-phenylallylidene)thiazolidine-2,4-dione]: the melting point lay within 251 to 254 °C.

As for `O=C1NC(=O)/C(=C/c2c[nH]c3ccc([N+](=O)[O-])cc23)S1` [Example 199, 5-(5-Nitro-1H-indol-3-ylmethylene)thiazolidine-2,4-dione], the melting point is 330 to 333 °C.

Compound `CN(C)c1ccc(/C=C/C=C2\SC(=O)NC2=O)cc1` [Example 239, 5-[3-(4-Dimethylaminophenyl)allylidene]thiazolidine-2,4-dione] came in with a melting point of 259 to 263 °C.

In turn, `COc1cc(OCc2c(F)cccc2[N+](=O)[O-])cc(OC)c1/C=C1\SC(=O)NC1=O` [Example 237, 5-[4-(2-Fluoro-6-nitrobenzyloxy)-2,6-dimethoxybenzylidene]thiazolidine-2,4-dione] came in with a melting point of 255 to 256 °C.

The compound `O=C1NC(=O)/C(=C/c2ccc3cc(O)ccc3c2)S1` [Example 171, 5-(6-Hydroxy-2-naphthylmethylene) thiazolidine-2,4-dione] returned a melting point of 310 to 314 °C.

Consider `COc1cc(O)cc(OC)c1/C=C1\SC(=O)NC1=O` [Example 234, 5-(4-Hydroxy-2,6-dimethoxybenzylidene)thiazolidine-2,4-dione], for which the melting point fell in the range of 331 to 333 °C.

The conditions of another data set: after subcutaneous injection of a soluble preparation; background statement; cited from earlier work.
Turning to “Co^3+-hexamer: "absorption rates vary between about 1 hour (for rapid-acting insulin analogues ...) and about 4 hours (Co^3+-hexamer)"”, the absorption rates result is given as “about 4 hour”.

Still in this data set, the particulars now being: in vivo, sc; cited from earlier work.
For Asp^B28 human insulin, the absorption rates result is “about 1 hour”.

On to “soluble human insulin hexamer: "inherent limitation of the absorption half-life to about 4 hours for a soluble human insulin hexamer"”, for which the absorption half-life result is “about 4 hours”.
